Assay results as given in paper PMC7106726, “Robust high-throughput assays to assess discrete steps in ubiquitination and related cascades” (BMC Molecular and Cell Biology, 2020).
Read-outs that look alike come from different tables or passages of the source.

Key:
[1] = target: T1, FLAG-Uba1 (Homo sapiens, UniProt P22314); experiment: AlphaScreen Uba1~ubiquitin thioester formation; format: biochemical
T1 construct: GST- and FLAG-tagged human Uba1 in pBJ842, expressed in S. cerevisiae BJ5654, GST cleaved with PreScission protease, FLAG tag kept
T1 sequence (P22314 2-1058): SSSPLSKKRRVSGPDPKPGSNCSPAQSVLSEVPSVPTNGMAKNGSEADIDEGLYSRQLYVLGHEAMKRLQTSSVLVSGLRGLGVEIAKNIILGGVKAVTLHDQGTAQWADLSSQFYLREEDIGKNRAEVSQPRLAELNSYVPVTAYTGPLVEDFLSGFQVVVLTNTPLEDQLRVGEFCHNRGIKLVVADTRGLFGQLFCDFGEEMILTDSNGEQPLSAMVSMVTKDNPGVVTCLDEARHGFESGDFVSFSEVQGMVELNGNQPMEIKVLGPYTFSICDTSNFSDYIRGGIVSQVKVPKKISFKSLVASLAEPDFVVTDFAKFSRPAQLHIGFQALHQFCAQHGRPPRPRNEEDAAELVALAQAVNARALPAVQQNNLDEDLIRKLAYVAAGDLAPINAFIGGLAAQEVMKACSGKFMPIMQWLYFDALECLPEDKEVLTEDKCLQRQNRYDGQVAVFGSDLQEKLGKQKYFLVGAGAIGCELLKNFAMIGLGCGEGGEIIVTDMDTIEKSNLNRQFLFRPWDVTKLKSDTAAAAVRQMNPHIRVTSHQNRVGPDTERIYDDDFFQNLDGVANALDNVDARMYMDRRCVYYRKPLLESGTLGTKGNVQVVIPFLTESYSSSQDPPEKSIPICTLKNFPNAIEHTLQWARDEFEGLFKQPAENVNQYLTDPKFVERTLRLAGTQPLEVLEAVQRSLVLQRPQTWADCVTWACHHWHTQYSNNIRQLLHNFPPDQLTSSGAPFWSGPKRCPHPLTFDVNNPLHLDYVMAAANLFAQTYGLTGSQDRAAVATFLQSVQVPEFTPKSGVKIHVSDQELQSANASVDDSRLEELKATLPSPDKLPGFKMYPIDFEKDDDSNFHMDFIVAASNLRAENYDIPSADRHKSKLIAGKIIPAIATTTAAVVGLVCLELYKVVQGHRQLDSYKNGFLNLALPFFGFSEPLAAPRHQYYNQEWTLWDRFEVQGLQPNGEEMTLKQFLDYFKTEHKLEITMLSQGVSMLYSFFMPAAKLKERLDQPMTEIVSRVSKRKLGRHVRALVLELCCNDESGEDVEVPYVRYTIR

[2] = target: T1, FLAG-Uba1; experiment: AlphaScreen Uba1~ubiquitin thioester formation; format: biochemical; conditions: read-out: IC50for inhibition of PCNA ubiquitination (Alpha)
Source text: AlphaScreen Uba1~ubiquitin thioester formation on FLAG-Uba1

[3] = read-out: IC50for inhibition of Uba1~Ub thioester formation (Alpha)
[4] = read-out: IC50for inhibition of PCNA ubiquitination (Alpha)

| SMILES | IC50 [1, 3] [µM] | further results |
| --- | --- | --- |
| CCCCCCCCOC(=O)c1cc(O)c(O)c(O)c1 [OG] | – | IC50 ([1]; 15 min preincubation, biotin-ubiquitin, 2 mM ATP, 8 mM MgCl2, pH 7.5, 25 °C, 30 min, 1% DMSO, read-out: IC50for inhibition of Uba1~Ub thioester formation (Alpha)): 13.4 µM |
| CCCCCCCCCCCCOC(=O)c1cc(O)c(O)c(O)c1 [DG] | 44.4 | – |
| Oc1cc(O)c2c(c1)O[C@H](c1ccc(O)c(O)c1)[C@@H](O)C2 [Cat] | – | IC50 ([1]; read-out: IC50for inhibition of PCNA ubiquitination (Western blot) [19]): > 500 µM |
| CCCOC(=O)c1cc(O)c(O)c(O)c1 [PG] | – | IC50 [1, 4]: > 500 µM |
| O=C1c2c(O)cc(O)cc2O[C@H](c2cc(O)c(O)c(O)c2)[C@H]1O [DM] | 27.5 | – |
| Oc1cc(O)c2c(c1)O[C@H](c1ccc(O)c(O)c1)[C@H](O)C2 [EC] | – | IC50 [1, 4]: > 500 µM |
| O=C(O)c1cc(O)c(O)c(O)c1 [GA] | – | IC50 [2]: > 500 µM |

The next lines start with results.

| IC50 [1, 3] [µM] | SMILES | further results |
| --- | --- | --- |
| 0.769 | O=C(O[C@@H]1Cc2c(O)cc(O)cc2O[C@@H]1c1ccc(O)c(O)c1)c1cc(O)c(O)c(O)c1 [ECG] | – |
| 1.59 | O=c1c(O)c(-c2cc(O)c(O)c(O)c2)oc2cc(O)cc(O)c12 [Myr] | – |
| 5.96 | Oc1cc(O)c2c(c1)O[C@H](c1cc(O)c(O)c(O)c1)[C@H](O)C2 [EGC] | – |
